Experimental data taken from patent US20080293683A1, “Hormone Replacement Therapy” (University of Kansas Medical Center, priority 2007, published 2008).
Where “and” joins values, the source holds several entries; their conditions need not be identical. Equal entries are not always repeated. Where two headings read alike, the source gives them in different places.

Legend:
[1] = molecular target: T1, recombinant human ERβ (Homo sapiens, UniProt Q92731); assay: ERβ binding assay: competition of [3H]E2 binding by competing estrogens; details: for binding affinity for ERβ (in words): concentrations up to 1000 nM; for RBAβ (%) (relative binding affinity for ERβ, of E2): calculated against E2 = 100
T1 construct: purchased PanVera Corporation (Madison, Wis.); host or cells: baculovirus-mediated expression system
T1 sequence (Q92731 whole entry): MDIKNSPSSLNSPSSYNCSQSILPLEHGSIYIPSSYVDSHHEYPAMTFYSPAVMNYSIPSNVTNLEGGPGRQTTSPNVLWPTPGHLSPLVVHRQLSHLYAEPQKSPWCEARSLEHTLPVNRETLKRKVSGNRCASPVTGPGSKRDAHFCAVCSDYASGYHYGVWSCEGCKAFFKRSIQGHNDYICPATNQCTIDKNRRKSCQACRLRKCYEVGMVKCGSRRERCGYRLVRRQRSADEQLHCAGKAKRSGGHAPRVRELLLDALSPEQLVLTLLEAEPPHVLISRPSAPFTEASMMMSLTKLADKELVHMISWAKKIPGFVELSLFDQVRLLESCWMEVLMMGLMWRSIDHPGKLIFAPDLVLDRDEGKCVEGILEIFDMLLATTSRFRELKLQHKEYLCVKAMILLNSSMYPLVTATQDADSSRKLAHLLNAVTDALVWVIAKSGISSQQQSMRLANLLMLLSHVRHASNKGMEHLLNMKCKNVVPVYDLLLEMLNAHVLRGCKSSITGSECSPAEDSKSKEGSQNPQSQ
Description: (§1) The recombinant human ERα and ERβ proteins and bovine serum albumin (BSA) were obtained from PanVera Corporation (Madison, Wis.). According to the supplier, the recombinant human ERα and ERβ were produced in a baculovirus-mediated expression system, and they were soluble and functionally active, with post-translational modifications similar to those found in mammalian cells. See Reid et al., Human estrogen receptor-α: Regulation by synthesis, modification and degradation, Cell. Mol. Life.
(§2) The following buffer solutions were used in the ER binding assays, and they were prepared beforehand and stored at 4° C. The binding buffer consisted of 10% glycerol, 2 mM dithiothreitol, 1 mg/mL BSA and 10 mM Tris-HCl at pH 7.5. The ERα washing buffer contained 40 mM Tris-HCl and 100 mM KCl (pH 7.4), but the ERG washing buffer contained only 40 mM Tris-HCl (adjusted to pH 7.4). The 50% hydroxylapatite slurry was prepared first by vigorously mixing 10 g hydroxylapatite with 60 mL of the Tris-HCl solution (50 mM, pH 7.4). Hydroxylapatite was then allowed to settle for 20 minutes at room temperature, and the supernatant was decanted. The above procedures were repeated 10 times, and afterwards hydroxylapatite was kept in the 50 mM Tris-HCl solution overnight at 4° C. Hydroxylapatite slurry was then adjusted to an approximate final concentration of 50% (v/v) using the same Tris-HCl solution and stored at 4° C., and the slurry was stable for up to several months.
(§3) Note that all of the estrogens were initially dissolved in pure ethanol to a stock concentration of 1 mM, and then further diluted to 100 μM with 20% aqueous ethanol. […] Immediately before the addition of the ERα or ERβ protein, it was diluted in the binding buffer and mixed gently with repetitive pipettings. […] The incubation mixture was then mixed gently and thoroughly with repetitive pipettings. […] The binding mixture was incubated at room temperature for two hours. At the end of the incubation, 100 μL of the hydroxylapatite slurry was added to each tube and the tubes were incubated on ice for 15 minutes with 3 times of brief vortexing. An aliquot (1 mL) of the appropriate washing buffer was added, mixed, and centrifuged at 10,000 g for five minutes, and the supernatants were discarded. This wash step was repeated twice. Hydroxylapatite pellets were then resuspended in 200 μL ethanol (followed by another rinse with 200 μL ethanol), and then the content was transferred to scintillation vials (containing 4 mL of the scintillation fluid) for measurement of ^3H-radioactivity with a liquid scintillation counter (Packard Tri-CARB 2900 TR; Downers Grove, Ill.).
(§4) To calculate the specific binding (pmol/mL) of the human ERα or ERβ protein at each concentration point, the following equation was used: […]
(§5) When a lower radioligand concentration is used, the corresponding IC50 value will also be relatively lower, but when the radioligand concentration increases, the corresponding IC50 value will also increase. […] Since the RBA value is a parameter that is independent of the radioligand concentration used, we thus have placed more emphasis on the RBA values instead of the absolute IC50 values in interpreting the physiological meanings of the data from in vitro receptor competition assays.

[2] = molecular target: T2, recombinant human ERα (Homo sapiens, UniProt P03372); assay: ERα binding assay: competition of [3H]E2 binding by competing estrogens; details: for RBAα % (relative binding affinity for ERα, of E2): calculated against E2 = 100; for RBAα/RBAβ: ratio of relative binding affinities ERα over ERβ
T2 construct: purchased PanVera Corporation (Madison, Wis.); host or cells: baculovirus-mediated expression system
T2 sequence (P03372 1-595): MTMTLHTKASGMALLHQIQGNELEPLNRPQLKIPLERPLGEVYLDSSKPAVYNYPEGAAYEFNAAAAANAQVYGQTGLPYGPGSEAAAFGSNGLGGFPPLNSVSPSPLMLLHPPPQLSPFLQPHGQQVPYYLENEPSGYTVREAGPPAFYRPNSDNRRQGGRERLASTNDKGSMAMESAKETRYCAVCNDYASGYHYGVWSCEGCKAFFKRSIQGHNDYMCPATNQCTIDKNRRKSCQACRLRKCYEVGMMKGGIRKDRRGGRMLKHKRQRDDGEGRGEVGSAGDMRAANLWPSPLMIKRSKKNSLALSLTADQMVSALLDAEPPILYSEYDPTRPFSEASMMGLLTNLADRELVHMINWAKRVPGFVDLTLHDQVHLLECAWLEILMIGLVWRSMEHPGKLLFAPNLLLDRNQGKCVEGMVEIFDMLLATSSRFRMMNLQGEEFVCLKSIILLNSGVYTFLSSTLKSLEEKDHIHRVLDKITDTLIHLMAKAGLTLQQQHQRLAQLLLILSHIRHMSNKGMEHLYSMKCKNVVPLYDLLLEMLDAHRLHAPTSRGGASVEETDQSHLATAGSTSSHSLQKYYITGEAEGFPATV
Description: as §1, §2, §3, §4, §5

| SMILES | IC50 ([1]; read-out: ERβ IC50) [nM] | IC50 ([2]; read-out: ERα IC50) [nM] | RBAβ (%) (relative binding affinity for ERβ, of E2) [1] | RBAα % (relative binding affinity for ERα, of E2) [2] | RBAα/RBAβ [2] | IC50 [1] [nM] | IC50 [2] [nM] | also measured |
| --- | --- | --- | --- | --- | --- | --- | --- | --- |
| COc1cc2c(cc1O)[C@H]1CC[C@]3(C)[C@@H](O)CC[C@H]3[C@@H]1CC2 [2-OH-3-MeO-E2, 2-Hydroxyestradiol 3-methyl ether] | > 1000 | > 1000 | – | – | – | – | – | binding affinity for ERβ (in words) [1]: substantially weaker binding affinity; binding affinity for ERα (in words) ([2]; concentrations up to 1000 nM): substantially weaker binding affinity |
| CC12CCC3c4cc(O)c(O)cc4CCC3C1CCC2=O (centres unmarked) [2-OH-E1, 2-Hydroxyestrone] | 2000 | 316 | 0.4 | 4% | 10 | – | – | preference of binding affinity for ERα over ERβ ([2]; ERα over ERβ): about ten-fold; RBAα/RBAβ ([2]; listed as 2-hydroxyestrone): about 10 |
| C[C@]12CC[C@@H]3c4cc(O)c(O)cc4CC[C@H]3[C@@H]1CC[C@@H]2O [2-OH-E2, 2-Hydroxyestradiol] | – | – | 35 | 22% | 0.6 | 25.1 | 50.1 | – |
| C[C@]12CC[C@@H]3c4cc(O)c(O)cc4CC[C@H]3[C@@H]1C[C@@H](O)[C@@H]2O [2-OH-E3, 2-Hydroxyestriol] | 794 | 501 | 1 | 2% | 2 | – | – | RBAα/RBAβ ([2]; listed as 2-hydroxyestriol): about 2 |
| C[C@]12CC[C@@H]3c4ccc(O)c(Br)c4CC[C@H]3[C@@H]1CC[C@@H]2O [4-Br-E2, 4-Bromoestradiol] | 25.1 | 159 | 35 | 7% | 0.2 | – | – | preference of binding affinity for ERβ over ERα ([1]; ERβ over ERα): about 5 fold |
| COc1c(O)ccc2c1CCC1C2CCC2(C)C(=O)CCC12 (centres unmarked) [4-MeO-E1, 4-Methoxyestrone] | – | – | – | – | – | > 1000 | > 1000 | binding affinity for ERβ (in words) [1]: did not have appreciable binding affinity; binding affinity for ERα (in words) [2]: did not have appreciable binding affinity |
| COc1c(O)ccc2c1CCC1C2CCC2(C)C(O)CCC12 (centres unmarked) [4-MeO-E2, 4-Methoxyestradiol] | – | – | 1 | 2% | 2 | 891 | 708 | RBAα/RBAβ ([2]; listed as 4-methoxyestradiol): about 2 |
| COc1c(O)ccc2c1CC[C@@H]1[C@@H]2CC[C@]2(C)[C@@H](O)[C@H](O)C[C@@H]12 [4-MeO-E3, 4-Methoxyestriol] | 631 | 1260 | 1 | 1% | 1 | – | – | – |
| Cc1c(O)ccc2c1CC[C@@H]1[C@@H]2CC[C@]2(C)[C@@H](O)CC[C@@H]12 [4-Methyl-E2, 4-Methylestradiol] | 25.1 | 126 | 35 | 7% and 9% | 0.3 | – | – | – |
| CC12CCC3c4ccc(O)c(N)c4CCC3C1CCC2=O (centres unmarked) [4-NH2-E1, 4-Aminoestrone] | > 1000 | 355 | – | 3% | – | – | – | binding affinity for ERβ (in words) [1]: very weak binding affinities; binding affinity for ERα (in words) ([2]; concentrations up to 1000 nM): very weak binding affinities |
| CC12CCC3c4ccc(O)c([N+](=O)[O-])c4CCC3C1CCC2=O (centres unmarked) [4-NO2-E1, 4-Nitroestrone] | > 1000 | 447 | – | 3% | – | – | – | binding affinity for ERβ (in words) [1]: very weak binding affinities; binding affinity for ERα (in words) ([2]; concentrations up to 1000 nM): very weak binding affinities |
| CC12CCC3c4ccc(O)c(O)c4CCC3C1CCC2=O (centres unmarked) [4-OH-E1, 4-Hydroxyestrone] | 708 | 708 | 1 | 2% | 2 | – | – | RBAα/RBAβ ([2]; listed as 4-hydroxyestrone): about 2 |
| C[C@]12CC[C@@H]3c4ccc(O)c(O)c4CC[C@H]3[C@@H]1CC[C@@H]2O [4-OH-E2, 4-Hydroxyestradiol] | 15.9 | 15.9 | 56 | 70% | 1.3 | – | – | RBAα/RBAβ ([2]; listed as 4-hydroxyestradiol): about 1.3 |
| CC12CCC3c4ccc(O)cc4C(=O)CC3C1CCC2=O (centres unmarked) [6-Keto-E1, 6-Ketoestrone] | 891 | 490 | 1 | 2% | 2 | – | – | RBA for ERβ, % of E1 ([1]; relative to E1): 50%; RBAα/RBAβ ([2]; listed as 6-ketoestrone): about 2; RBA for ERα, % of E1 ([2]; relative to E1): 23% |
| CC12CCC3c4ccc(O)cc4C(=O)CC3C1CCC2O (centres unmarked) [6-Keto-E2, 6-Ketoestradiol] | – | – | 56 | 71% | 1.3 | 15.9 | 15.9 | RBAα/RBAβ ([2]; listed as 6-ketoestradiol): about 1.3 |
| C[C@]12CC[C@@H]3c4ccc(O)cc4C(=O)C[C@H]3[C@@H]1CC[C@H]2O [6-Keto-E2-17α, 6-Ketoestradiol-17α] | – | – | 1 | 2% | 2 | 1120 | 562 | RBA for ERβ, % of E2-17α ([1]; relative to E2-17α): 25%; RBAα/RBAβ ([2]; listed as 6-ketoestradiol-17α): about 2; RBA for ERα, % of E2-17α ([2]; relative to E2-17α): 9% |
